Experiment: pH of [68Ga]PSMA-11 solution (acceptance 4.0-5.0)
Format: physicochemical
Settings: for pH of the gallium-68 labelled PSMA-11 solution: immediately after the radiolabelling procedure
Method: (§1) 100 μl of the ascorbic acid solution (equivalent to 25 mg ascorbic acid) was taken from vial 3, and was filtered through a 5 μm filter needle. The sodium ascorbate solution was subsequently added to vail 2, and mixed thoroughly. The obtained content of vial 2 was added to vial 1, and again mixed thoroughly. To this obtained vail 1, the eluate, comprising the gallium-68, was added to obtain a gallium-68 labelled PSMA-11 solution. Optionally, a 2.5 ml 0.9% sodium chloride solution may be added to increase the volume and/or to amend the osmolality to be under 1000 mOsm/kg.
The pH of the gallium-68 labelled PSMA-11 solution was 4.5 immediately after the radiolabelling procedure and was unchanged after 4 hours.
as §1, with “a Gallium-68” for “a gallium-68”, “a” for “a 2.5 ml 0.9%”, “volume of the obtained Gallium-68 labelled PSMA-11 solution” for “volume”, “mOsm/kg. The pH of the gallium-68 labelled PSMA-11 solution was 4.5 immediately after the radiolabelling procedure and was unchanged after 4 hours.” for “mOsm/kg.”
as §1, with “a Gallium-68” for “a gallium-68”, “a” for “a 2.5 ml 0.9%”, “volume of the obtained Gallium-68 labelled PSMA-11 solution” for “volume”, “mOsm/kg. The pH of the gallium-68 labelled PSMA-11 solution was 4.5 immediately after the radiolabelling procedure and was unchanged after 6 hours.” for “mOsm/kg.”
Table 1 to Table 5 show the results of various radiolabelling experiments on radiochemical purity and the chelation yield. The radiolabelling experiments in the tables are carried out as described in: • Example 1 for when the gallium-68 source is GE Liquid target generator and EZAG GalliaPharm generator; • Example 2 for when the gallium-68 source is IRE Galli Eo generator; • Example 3 for when the gallium-68 source is GE solid target generator;
However, the experiments were carried out with the amount of ascorbic acid as indicated in the Tables 1 to 5, and the activity as indicated in the Tables 1 to 5. Radiochemical purities were measured at various times (T0, T1, T4, T6) after the radiolabelled experiments have been conducted.
The kits of Example 1, Example 2 or Example 3, with amounts of ascorbic acid as set out in Table 7 were used in the experiments for the ascorbic acid bracketing matrix. Three strengths of [^68Ga]Ga-PSMA-11 will be tested, i.e. 50 mCi/ml, 7 mCi/ml and 1 mCi/ml. Radiochemical purity was determined at different time points (TO, T1, T4 or T6), as set out in Table 7.

## O=C([O-])CN(CCN(CC(=O)[O-])Cc1cc(CCC(=O)NCCCCCC(=O)NCCCC[C@H](NC(=O)N[C@@H](CCC(=O)O)C(=O)O)C(=O)O)ccc1[O-])Cc1cc(CCC(=O)O)ccc1[O-].[68Ga+3].[OH3+] [[^68Ga]PSMA-11, gallium-68 radiolabelled Glu-urea-Lys-HBED-CC (gozetotide or PSMA-11)]
1 mg ascorbic acid, 58.7-71.1 mCi, 7.47-8.99 mCi/mL, GE Liquid target, n=3, T0
  pH: C (C = conforms to specifications)
1 mg ascorbic acid, 58.7-71.1 mCi, 7.47-8.99 mCi/mL, GE Liquid target, n=3, T4 (4 h)
  pH: C (C = conforms to specifications)
2.5 mg ascorbic acid, 49.9-76.9 mCi, 6.31-9.72 mCi/mL, GE Liquid target, n=3, T0
  pH: C (C = conforms to specifications)
2.5 mg ascorbic acid, 49.9-76.9 mCi, 6.31-9.72 mCi/mL, GE Liquid target, n=3, T4 (4 h)
  pH: C (C = conforms to specifications)
5 mg ascorbic acid, 60-69.9 mCi, 7.61-8.81 mCi/mL, 3 × GE Liquid Target, 3 × EZAG GalliaPharm, n=6, T0
  pH: C (C = conforms to specifications)
5 mg ascorbic acid, 60-69.9 mCi, 7.61-8.81 mCi/mL, 3 × GE Liquid Target, 3 × EZAG GalliaPharm, n=6, T4 (4 h)
  pH: C (C = conforms to specifications)
10 mg ascorbic acid, 458-500 mCi, 43.4-47.3 mCi/mL, GE Solid Target, n=3, T0
  pH: C (C = conforms to specifications)
10 mg ascorbic acid, 458-500 mCi, 43.4-47.3 mCi/mL, GE Solid Target, n=3, T4 (4 h)
  pH: C (C = conforms to specifications)
10 mg ascorbic acid, 514-520 mCi, 49.0-66.1 mCi/mL, GE Solid Target, n=3, T0
  pH: C (C = conforms to specifications)
10 mg ascorbic acid, 514-520 mCi, 49.0-66.1 mCi/mL, GE Solid Target, n=3, T6 (6 h)
  pH: C (C = conforms to specifications)
15 mg ascorbic acid, 10.0-18.4 mCi, 0.95-1.77 mCi/mL, 1 × EZAG GalliaPharm, 2 × IRE Galli Eo, n=3, T0
  pH: C (C = conforms to specifications)
15 mg ascorbic acid, 10.0-18.4 mCi, 0.95-1.77 mCi/mL, 1 × EZAG GalliaPharm, 2 × IRE Galli Eo, n=3, T1 (1 h)
  pH: C (C = conforms to specifications)
15 mg ascorbic acid, 23.7-47.6 mCi, 2.26-4.53 mCi/mL, 1 × EZAG GalliaPharm, 2 × IRE Galli Eo, n=3, T0
  pH: C (C = conforms to specifications)
15 mg ascorbic acid, 23.7-47.6 mCi, 2.26-4.53 mCi/mL, 1 × EZAG GalliaPharm, 2 × IRE Galli Eo, n=3, T4 (4 h)
  pH: C (C = conforms to specifications)
20 mg ascorbic acid, 514-544 mCi, 48.3-51.9 mCi/mL, GE Solid Target, n=2, T0
  pH: C (C = conforms to specifications)
20 mg ascorbic acid, 514-544 mCi, 48.3-51.9 mCi/mL, GE Solid Target, n=2, T6 (6 h)
  pH: C (C = conforms to specifications)
25 mg ascorbic acid, 10.2 mCi, 0.97 mCi/mL, IRE Galli Eo, n=1, T0
  pH: C (C = all results conform to specifications)
25 mg ascorbic acid, 10.2 mCi, 0.97 mCi/mL, IRE Galli Eo, n=1, T1 (1 h)
  pH: C (C = all results conform to specifications)
25 mg ascorbic acid, 19.5-20.0 mCi, 1.85-1.90 mCi/mL, EZAG GalliaPharm, n=2, T0
  pH: C (C = all results conform to specifications)
25 mg ascorbic acid, 19.5-20.0 mCi, 1.85-1.90 mCi/mL, EZAG GalliaPharm, n=2, T1 (1 h)
  pH: C (C = all results conform to specifications)
25 mg ascorbic acid, 23.3-24 mCi, 2.22-2.28 mCi/mL, IRE Galli Eo, n=2, T0
  pH: C (C = all results conform to specifications)
25 mg ascorbic acid, 23.3-24 mCi, 2.22-2.28 mCi/mL, IRE Galli Eo, n=2, T4 (4 h)
  pH: C (C = all results conform to specifications)
25 mg ascorbic acid, 46.0-46.1 mCi, 4.38-4.39 mCi/mL, EZAG GalliaPharm, n=2, T0
  pH: C (C = all results conform to specifications)
25 mg ascorbic acid, 46.0-46.1 mCi, 4.38-4.39 mCi/mL, EZAG GalliaPharm, n=2, T4 (4 h)
  pH: C (C = all results conform to specifications)
50 mg ascorbic acid, 560 mCi, 71.1 mCi/mL, GE Solid Target, n=1, T0
  pH: C (C = conforms to specifications)
50 mg ascorbic acid, 560 mCi, 71.1 mCi/mL, GE Solid Target, n=1, T6 (6 h)
  pH: C (C = conforms to specifications)
Example 1 kit (25 mg ascorbic acid; EZAG GalliaPharm or GE Liquid, 60-70 mCi)
  pH of the gallium-68 labelled PSMA-11 solution: 4.5
Example 1 kit, after 4 hours
  pH of the gallium-68 labelled PSMA-11 solution, change: unchanged
Example 2 kit (25 mg ascorbic acid; IRE Galli Eo, 60-70 mCi)
  pH of the gallium-68 labelled PSMA-11 solution: 4.5
Example 2 kit, after 4 hours
  pH of the gallium-68 labelled PSMA-11 solution, change: unchanged
Example 3 kit (25 mg ascorbic acid; solid target, 350-600 mCi)
  pH of the gallium-68 labelled PSMA-11 solution: 4.5
Example 3 kit, after 6 hours
  pH of the gallium-68 labelled PSMA-11 solution, change: unchanged
Bracketing ~1 mCi/mL, 18.75 mg ascorbic acid, 8.9-11.5 mCi, 0.85-1.09 mCi/mL, IRE Galli Eo, n=2, T0
  pH: C (C = Conforms to specifications)
Bracketing ~1 mCi/mL, 18.75 mg ascorbic acid, 8.9-11.5 mCi, 0.85-1.09 mCi/mL, IRE Galli Eo, n=2, T1 (1 h)
  pH: C (C = Conforms to specifications)
Bracketing ~1 mCi/mL, 25 mg ascorbic acid, 8.8-12.7 mCi, 0.84-1.21 mCi/mL, 2 × IRE Galli Eo, n=2, T0
  pH: C (C = Conforms to specifications)
Bracketing ~1 mCi/mL, 25 mg ascorbic acid, 8.8-12.7 mCi, 0.84-1.21 mCi/mL, 2 × IRE Galli Eo, n=2, T1 (1 h)
  pH: C (C = Conforms to specifications)
Bracketing ~1 mCi/mL, 31.25 mg ascorbic acid, 15.2-26.9 mCi, 1.44-2.54 mCi/mL, EZAG GalliaPharm, n=2, T0
  pH: C (C = Conforms to specifications)
Bracketing ~1 mCi/mL, 31.25 mg ascorbic acid, 15.2-26.9 mCi, 1.44-2.54 mCi/mL, EZAG GalliaPharm, n=2, T1 (1 h)
  pH: C (C = Conforms to specifications)
Bracketing ~7 mCi/mL, 18.75 mg ascorbic acid, 51.0-58.0 mCi, 5.55-6.5 mCi/mL, IRE Galli Eo, n=2, T0
  pH: C (C = Conforms to specifications)
Bracketing ~7 mCi/mL, 18.75 mg ascorbic acid, 51.0-58.0 mCi, 5.55-6.5 mCi/mL, IRE Galli Eo, n=2, T4 (4 h)
  pH: C (C = Conforms to specifications)
Bracketing ~7 mCi/mL, 25 mg ascorbic acid, 51.6-74.4 mCi, 4.56-6.92 mCi/mL, 3 × GE Liquid Target, 3 × IRE Galli Eo, 3 × EZAG GalliaPharm, n=9, T0
  pH: C (C = Conforms to specifications)
Bracketing ~7 mCi/mL, 25 mg ascorbic acid, 51.6-74.4 mCi, 4.56-6.92 mCi/mL, 3 × GE Liquid Target, 3 × IRE Galli Eo, 3 × EZAG GalliaPharm, n=9, T4 (4 h)
  pH: C (C = Conforms to specifications)
Bracketing ~7 mCi/mL, 31.25 mg ascorbic acid, 61.5-62.0 mCi, 5.85-5.88 mCi/mL, EZAG GalliaPharm, n=2, T0
  pH: C (C = Conforms to specifications)
Bracketing ~7 mCi/mL, 31.25 mg ascorbic acid, 61.5-62.0 mCi, 5.85-5.88 mCi/mL, EZAG GalliaPharm, n=2, T4 (4 h)
  pH: C (C = Conforms to specifications)
Bracketing ~50 mCi/mL, 20 mg ascorbic acid, 514-544 mCi, 48.3-51.9 mCi/mL, GE Solid Target, n=2, T0
  pH: C (C = Conforms to specifications)
Bracketing ~50 mCi/mL, 20 mg ascorbic acid, 514-544 mCi, 48.3-51.9 mCi/mL, GE Solid Target, n=2, T6 (6 h)
  pH: C (C = Conforms to specifications)
Bracketing ~50 mCi/mL, 25 mg ascorbic acid, 537-551 mCi, 50.2-51.6 mCi/mL, GE Solid Target, n=3, T0
  pH: C (C = Conforms to specifications)
Bracketing ~50 mCi/mL, 25 mg ascorbic acid, 537-551 mCi, 50.2-51.6 mCi/mL, GE Solid Target, n=3, T6 (6 h)
  pH: C (C = Conforms to specifications)
Bracketing ~50 mCi/mL, 31.25 mg ascorbic acid, 500-544 mCi, 48.1-51.7 mCi/mL, GE Solid Target, n=2, T0
  pH: C (C = Conforms to specifications)
Bracketing ~50 mCi/mL, 31.25 mg ascorbic acid, 500-544 mCi, 48.1-51.7 mCi/mL, GE Solid Target, n=2, T6 (6 h)
  pH: C (C = Conforms to specifications)
control, 0 mg ascorbic acid, 70 mCi, GE Solid Target, n=1, T0
  pH: C (C = all results conform to specifications)
control, 0 mg ascorbic acid, 70 mCi, GE Solid Target, n=1, T4 (4 h)
  pH: C (C = all results conform to specifications)
Validation batches, 25 mg ascorbic acid, 51.6-62.7 mCi, 4.56-5.88 mCi/mL, IRE Galli Eo, n=3, T0
  pH: C (C = all results conform to specifications)
Validation batches, 25 mg ascorbic acid, 51.6-62.7 mCi, 4.56-5.88 mCi/mL, IRE Galli Eo, n=3, T4 (4 h)
  pH: C (C = all results conform to specifications)
Validation batches, 25 mg ascorbic acid, 53.3-74.4 mCi, 5.03-6.92 mCi/mL, GE Liquid target, n=3, T0
  pH: C (C = all results conform to specifications)
Validation batches, 25 mg ascorbic acid, 53.3-74.4 mCi, 5.03-6.92 mCi/mL, GE Liquid target, n=3, T4 (4 h)
  pH: C (C = all results conform to specifications)
Validation batches, 25 mg ascorbic acid, 65.0-66.4 mCi, 5.74-6.15 mCi/mL, EZAG GalliaPharm, n=3, T0
  pH: C (C = all results conform to specifications)
Validation batches, 25 mg ascorbic acid, 65.0-66.4 mCi, 5.74-6.15 mCi/mL, EZAG GalliaPharm, n=3, T4 (4 h)
  pH: C (C = all results conform to specifications)
Validation batches, 25 mg ascorbic acid, 537-551 mCi, 50.2-51.6 mCi/mL, GE Solid Target, n=3, T0
  pH: C (C = all results conform to specifications)
Validation batches, 25 mg ascorbic acid, 537-551 mCi, 50.2-51.6 mCi/mL, GE Solid Target, n=3, T6 (6 h)
  pH: C (C = all results conform to specifications)
Validation batches, 25 mg ascorbic acid, 555-564 mCi, 51.1-52.7 mCi/mL, ARTMS Solid Target, n=3, T0
  pH: C (C = all results conform to specifications)
Validation batches, 25 mg ascorbic acid, 555-564 mCi, 51.1-52.7 mCi/mL, ARTMS Solid Target, n=3, T6 (6 h)
  pH: C (C = all results conform to specifications)
